# Measurements published in US7160923B1, “Polyamine analogues as therapeutic and diagnostic agents” (MediQuest Therapeutics, Inc., priority 1997, dated 2007).
# Tests used:
# [1] = system: polyamine transporter (PATr); test: Polyamine transport (PAT) inhibition assay in MDA-MB-231 cells; assay type: cell-based, human
# Procedure: (§1) In a conventional radiometric assay, the cells are incubated under growth conditions with [5,8-^14C]spermine in serum-free medium for varying intervals. Cells are plated at a known density in 24 well plates in standard tissue culture medium and allowed to adhere and grow for 15–96 hours. Due to the low signal of the radiolabel in this assay, 96 or […] well microplates cannot be used in this assay, creating a major bottleneck for throughput. Cell numbers are determined, and the plate is placed in a temperature controlled system at 37° C. Aminoguanidine is added to the medium to a final concentration of 1 mM. […] The assay is initiated by the mixing of the inhibitor and radioligand. The cells are incubated for an interval of about 1–60 minutes depending on cell type. The assay is terminated by removing the medium and cooling the plates to 4° C. The cells are then washed with cold medium three times, dissolved in 0.1% sodium dodecylsulfate, and the radioactivity in solution is determined by scintillation counting.
# Therefore, the growth assay and a kinetic transport assay have been used to validate transport inhibition. […]
# cultured cells = test: Fluorescent microscopic analysis of monodansylspermine uptake; assay type: cell-based
# Procedure: Cells were plated in a sterile chambered slide and grown for 15–48 hours to assure adherence of cells to the slide. The medium was removed and replaced with fresh medium containing 1 μM MDS for a 10 minute incubation period at 37° C. The medium was then removed and the cells washed 3 times with phosphate buffered saline. Glycerol (50% v/v) in a volume of […] was added to the chamber, and the slide was removed and covered with a cover slip.
# Using a fluorescence microscope with filters set for excitation at 340 nm and emission at 530 nm, the slide was observed under normal light and with fluorescence. Uptake of the dansylated spermine was observed microscopically and recorded on photograph.
# [2] = system: polyamine transporter (PATr); test: Radiometric polyamine transport (PAT) assay in A172 cells; assay type: cell-based
# Procedure: as §1, with “In a conventional radiometric assay, the cells are incubated under growth conditions with [5,8-^14C]spermine in serum-free medium for varying intervals.” left out
# [3] = target: spermidine/spermine acetyltransferase (SSAT) (Homo sapiens, UniProt P21673); test: Spermidine/spermine acetyltransferase (SSAT) enzyme assay; assay type: biochemical; details: varying concentrations; 1 mM spermidine, 1 mM 14C-Acetyl CoA, pH 7.8
# Chain of spermidine/spermine acetyltransferase (SSAT) (P21673 whole entry, species assumed): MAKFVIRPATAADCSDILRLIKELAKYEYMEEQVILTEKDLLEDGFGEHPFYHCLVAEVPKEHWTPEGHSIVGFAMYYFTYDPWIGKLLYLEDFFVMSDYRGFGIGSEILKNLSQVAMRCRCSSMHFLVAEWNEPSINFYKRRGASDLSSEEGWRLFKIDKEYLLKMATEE
# Procedure: A study was conducted to determine whether the compositions of the present invention, designed as PAT inhibitors, had other activities on the PA system. Specifically, the ability of DACS to inhibit an enzyme involved in PA recycling was evaluated. The method used was as described in Casero, R. A. et al., Biochem. J270:615–620 (1990) hereby incorporated by reference in its entirety. This assay measures the incorporation of ^14C-labeled acetyl CoA into spermidine to form acetylspermidine. Varying concentrations of DACS were added to a reaction mixture containing HEPES buffer, pH 7.8, 1 mM spermidine, and 1 mM ^14C-Acetyl CoA. The product is isolated by binding to phosphocellulose filter paper and the extent of reaction is determined by scintillation counting.
# [4] = system: T-cell acute lymphoblastic leukemias (ALL), glioblastomas, prostate, and colon cell lines; test: In vitro test in combination with ODC inhibitors against several human cancer cell lines; assay type: cell-based
# Procedure: DACS was tested in vitro in combination with ODC inhibitors against several human cancer cell lines. These include T-cell acute lymphoblastic leukemias (ALL), glioblastomas, prostate, and colon cell lines.
# [5] = system: MDA-MB-231 human breast carcinoma cells; test: Growth assay of MDA-MB-231 cells with and without ODC inhibitor (DFMO), 1 μM spermidine; assay type: cell-based; details: for R: ratio of the IC50 in the absence of DFMO over the IC50 in the presence of DFMO, MDA growth assay
# Text: The ratio, R is the IC50 for […] relative to the IC50 for the polyamine analogue combined with an ODC inhibitor. This value of R, indicates the relative level of “synergism” between the polyamine analogue and ODC inhibitor.
# [6] = system: polyamine transporter (PATr); test: Polyamine transport (PAT) inhibition assay in MDA-MB-231 cells; assay type: cell-based, human; remark: listed apart in the source
# [7] = system: murine L1210 leukemia cells; details: cited from earlier work
# neoplastic vessels = details: one month of treatment, humans with cervical interepithelial neoplasia; cited from earlier work
# cancer cells = details: cited from earlier work
# [8] = parallel library products, purity estimated greater than 80%, read-out: Ki μM, Inhibition of the Polyamine Transporter in MDA-MB-231 Cell Line
# [9] = MDA-MB-231 cell PATr, read-out: Ki for the PATr
structure (smiles),measurement,setting,value
NCCCNCCCCNCCCNS(=O)(=O)c1cccc2ccccc12,Ki,[1]; [8],0.19 µM
NCCCCNS(=O)(=O)c1cccc2ccccc12,Ki,[1]; [8],> 30 µM
NCCCNCCCCNCCCNS(=O)(=O)c1ccc2ccccc2c1,Ki,[1]; [8],0.15 µM
NCCCCNS(=O)(=O)c1ccc2ccccc2c1,Ki,[1]; [8],5 µM
CC1(C)C2CCC1(CS(=O)(=O)NCCCNCCCCNCCCN)C(=O)C2 (stereo not shown),Ki,[1]; [8],> 10 µM
CC1(C)C2CCC1(CS(=O)(=O)NCCCCN)C(=O)C2 (stereo not shown),Ki,[1]; [8],> 30 µM
"CN(C)c1cccc2c(S(=O)(=O)NCCCNCCCCNCCCN)cccc12 [Compound 3, N^1-dansylspermine]",intracellular localization,cultured cells,localize specifically to the nucleoli and the nuclear membrane
same,uptake of the fluorescent probe into cells,"cultured cells; 1 μM, 10 minute incubation at 37° C.",took up the labeled material
same,displacement of 3H-spermidine in the transport assay,[2]; A172 cells,competitively displace
same,Ki,[1]; [9],0.08 µM
"CN(C)c1cccc2c(S(=O)(=O)NCCCCCC(=O)NCCCNCCCCNCCCN)cccc12 [Compound 4, N^1-[(N^6-dansyl)-6-aminocaproyl]spermine]",inhibition of SSAT enzymatic activity,[3],inhibited spermidine/spermine acetyltransferase (SSAT) in a dose-related manner
same,effectiveness against tumor cell lines in vitro,[4],effective against all these tumor cell lines in vitro
same,cell growth reduced,"[5]; DACS plus ODC inhibitor in the presence of polyamines, by day 3",69%
same,IC50,"[5]; Homo sapiens, MDA-MB-231, with ODC inhibitor, 1.0 μM supplemented polyamines, read-out: IC50 for growth in combination with an ODC inhibitor",0.6 µM
same,concentration at which the compound alone becomes growth inhibitory,"[5]; alone, without ODC inhibitor",300 µM
same,prevention of rescue from ODC inhibition by natural polyamines,"[5]; putrescine, spermidine, N1-acetylspermine and N1-acetylspermidine",prevents
same,R,[5],400
same,Ki,"[6]; putrescine uptake, read-out: Ki, putrescine uptake",0.0054 µM
same,Ki,"[6]; spermidine uptake, read-out: Ki, spermidine uptake",0.008 µM
"NCCCNCCCCNCCCNC(=O)CCCCCNS(=O)(=O)c1ccc(CNC(=O)c2ccc(Cl)cc2)s1 [Compound 5, N^1-[(N^6–5-(4-chlorobenzamidomethyl)-thiophene-2-sulfonyl)-6-aminocaproyl]spermine]",R,[5],210
NCCCNCCCCNCCCNC(=O)CCCCCNS(=O)(=O)c1ccc2oc3ccccc3c2c1 [Compound 6],R,[5],220
"NCCCNCCCCNCCCNS(=O)(=O)c1ccc2ccc3cccc4ccc1c2c34 [Compound 15, N^1-(1-pyrenylsulfonyl)spermine]",Ki,[1]; [9],0.091 µM
"CN(C)CCCN1c2ccccc2CCc2ccccc21 [Compound 165, imipramine, reference compound]",inhibition of the PAT assay,[2]; A172 cell line,inhibited the PAT assay
same,Ki,"[2]; A172 cells, read-out: Ki, non-competitive inhibitor of PAT",0.041 µM
same,inhibition of the PAT assay,[1]; MDA cell line,inhibited the PAT assay
same,Ki,"[1]; MDA cells, read-out: Ki, non-competitive inhibitor of PAT",0.5 µM
same,inhibition of polyamine transport,[1]; cell line not stated at the place (Example XXII: A172 and MDA),inhibited polyamine transport
"NCCC[C@](N)(C(=O)O)C(F)F [DFMO, α-difluoromethylornithine]",survival,[7]; DFMO mice transplanted with PAT-deficient L1210 cells,> 60 days
same,time to death,"[7]; mice with wild-type L1210 cells (intact PAT), treated with DFMO",12 days
same,reduction in neoplastic vessel count,neoplastic vessels,50%
NCCCCN(CCCN)CCCNC(=O)CCCc1ccc(N(CCCl)CCCl)cc1 [chlorambucil-spermidine conjugate],fold increase in cytotoxicity compared to chlorambucil alone,cancer cells,≤ 225 fold
